{
  "source": "ChEMBL document CHEMBL1201862",
  "about": "“PubChem BioAssay data set” (2004)",
  "key": {"[1]": {"molecular_target": "Lysine-specific demethylase 4C (Homo sapiens, UniProt Q9H3R0)", "sequence (Q9H3R0 whole entry)": "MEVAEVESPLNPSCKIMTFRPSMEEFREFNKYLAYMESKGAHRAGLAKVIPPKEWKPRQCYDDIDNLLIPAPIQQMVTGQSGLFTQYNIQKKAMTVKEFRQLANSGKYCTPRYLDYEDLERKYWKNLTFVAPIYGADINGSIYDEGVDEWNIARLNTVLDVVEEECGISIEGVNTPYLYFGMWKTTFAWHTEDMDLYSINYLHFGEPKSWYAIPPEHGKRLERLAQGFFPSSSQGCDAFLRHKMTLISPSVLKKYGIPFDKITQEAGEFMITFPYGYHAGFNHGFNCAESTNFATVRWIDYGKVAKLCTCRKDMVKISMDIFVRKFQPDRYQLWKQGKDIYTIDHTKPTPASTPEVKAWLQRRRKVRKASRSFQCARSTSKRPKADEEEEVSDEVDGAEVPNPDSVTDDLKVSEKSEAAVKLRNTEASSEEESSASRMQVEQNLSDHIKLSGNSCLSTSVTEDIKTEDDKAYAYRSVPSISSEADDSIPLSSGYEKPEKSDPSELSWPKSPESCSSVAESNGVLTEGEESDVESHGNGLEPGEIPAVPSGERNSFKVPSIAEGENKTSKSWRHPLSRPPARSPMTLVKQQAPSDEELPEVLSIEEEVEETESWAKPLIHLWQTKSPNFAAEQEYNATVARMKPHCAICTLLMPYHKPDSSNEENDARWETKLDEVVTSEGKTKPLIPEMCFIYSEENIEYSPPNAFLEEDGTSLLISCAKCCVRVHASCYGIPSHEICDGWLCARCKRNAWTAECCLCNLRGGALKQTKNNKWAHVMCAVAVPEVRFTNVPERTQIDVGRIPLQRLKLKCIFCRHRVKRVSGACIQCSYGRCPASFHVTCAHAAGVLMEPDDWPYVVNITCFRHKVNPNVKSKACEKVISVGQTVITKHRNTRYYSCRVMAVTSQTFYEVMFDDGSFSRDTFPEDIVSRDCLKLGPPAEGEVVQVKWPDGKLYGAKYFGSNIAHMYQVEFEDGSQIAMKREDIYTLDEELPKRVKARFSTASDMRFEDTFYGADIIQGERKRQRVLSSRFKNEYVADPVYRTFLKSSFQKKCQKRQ", "experiment": "inhibition of JMJD2C H3K9me3 demethylation – biochemical, DELFIA europium, cherry-picked samples, dose response (AID 488835)", "format": "functional"}, "CAAX prenyl protease 1": {"molecular_target": "CAAX prenyl protease 1 (Saccharomyces cerevisiae S288c, UniProt P47154)", "sequence (P47154 whole entry)": "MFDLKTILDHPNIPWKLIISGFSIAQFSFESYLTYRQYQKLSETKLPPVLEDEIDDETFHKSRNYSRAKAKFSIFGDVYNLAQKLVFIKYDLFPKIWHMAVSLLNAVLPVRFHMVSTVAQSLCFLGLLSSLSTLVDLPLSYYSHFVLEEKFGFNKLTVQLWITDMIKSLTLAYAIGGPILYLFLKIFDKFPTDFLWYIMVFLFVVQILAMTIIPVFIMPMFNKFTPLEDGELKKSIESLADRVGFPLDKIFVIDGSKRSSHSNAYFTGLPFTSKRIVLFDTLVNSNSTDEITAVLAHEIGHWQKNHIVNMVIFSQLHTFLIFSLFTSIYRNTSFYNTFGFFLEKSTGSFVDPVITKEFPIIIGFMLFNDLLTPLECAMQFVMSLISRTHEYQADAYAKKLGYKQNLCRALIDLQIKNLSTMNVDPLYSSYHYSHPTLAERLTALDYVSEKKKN", "experiment": "yeast CAAX protease Ste24 inhibition – biochemical, S. cerevisiae, plate reader, cherry-pick, dose response (AID 488815)"}, "[2]": {"experiment": "HEK-293T viability loss, compound-treated – cell-based, uHTS hits, cytotoxicity control for B/T-cell NF-kB inhibitor project, dose response (AID 489019);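 note: IC50 reflects cytotoxicity as loss of cell viability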", "format": "functional"}, "[3]": {"experiment": "luciferase reporter signal suppression in cells – H4 neuroglioma cells, luminescence, dose response (AID 1990)", "format": "functional, cell-based"}, "BJ": {"system": "BJ", "experiment": "growth inhibition of engineered Ras-driven BJ cells – cell-based, alamar blue fluorescence, cherrypicked samples, dose response (AID 2631);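 note: confirmatory dose-response assay in RAS-dependent BJ fibroblasts engineered with TERT, LT and ST, with cytotoxicity read by fluorescence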", "format": "functional", "settings": "Homo sapiens"}, "[4]": {"experiment": "non-specific 3'UTR reporter inhibition in Clone20-Shn3RL – cell-based, Renilla luciferase, cherry-picked, counter-screen for Shn3 inhibitor project, dose response (AID 624133)", "format": "functional"}, "[5]": {"experiment": "alpha-synuclein stem-loop luciferase translation blockers – H4 neuroglioma cells, luminescence, confirmation (AID 1988)", "format": "functional, cell-based"}, "Paired box protein Pax-8": {"molecular_target": "Paired box protein Pax-8 (Homo sapiens, UniProt Q06710)", "sequence (Q06710 whole entry)": "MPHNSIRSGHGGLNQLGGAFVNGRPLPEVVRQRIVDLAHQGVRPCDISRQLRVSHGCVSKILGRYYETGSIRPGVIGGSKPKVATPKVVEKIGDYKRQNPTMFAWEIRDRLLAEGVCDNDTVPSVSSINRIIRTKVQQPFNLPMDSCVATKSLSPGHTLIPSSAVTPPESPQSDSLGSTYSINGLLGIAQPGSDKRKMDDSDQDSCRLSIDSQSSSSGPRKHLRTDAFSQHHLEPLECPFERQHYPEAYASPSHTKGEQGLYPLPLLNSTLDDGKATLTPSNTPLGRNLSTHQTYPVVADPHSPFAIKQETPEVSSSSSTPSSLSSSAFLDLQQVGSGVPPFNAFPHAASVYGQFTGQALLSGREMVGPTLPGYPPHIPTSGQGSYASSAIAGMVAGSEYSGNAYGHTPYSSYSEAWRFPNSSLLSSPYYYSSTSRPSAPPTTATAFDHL", "experiment": "PAX8 transcriptional activity inhibition in RMG-I – RMG-I cells, luciferase, cherry-pick, dose response (AID 687027);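 note: luciferase reporter driven by Pax8 target thyroperoxidase promoter measured by SteadyGlo luminescence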", "format": "functional, cell-based"}, "[6]": {"experiment": "NIH-3T3 fibroblast cytotoxicity, dose response, cytotoxicity control, cell-based, fluorescence, Alamar Blue, secondary assay (AID 2327);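 note: NIH-3T3 mouse fibroblasts cultured with fluconazole at 8 µg/mL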", "format": "functional"}, "[7]": {"experiment": "reduction of Shn3 3'UTR-driven luciferase in osteoblasts – cell-based, Clone20 osteoblasts, firefly luciferase, cherry-picked, dose response (AID 624132)", "format": "functional"}, "[8]": {"experiment": "fluconazole-exposed Candida albicans growth modulators – fluorescence, retest, confirmation (AID 2467)", "format": "functional, cell-based"}, "[9]": {"experiment": "Luminescence Cell-Based Dose Response HTS to Identify Inhibitors of 5'UTR Stem-Loop Driven Prion Protein mRNA Translation in H4 Neuroglioblastoma Cells. [Related pubchem assays: 1827 (Project Summary), 1813 (Primary HTS)]", "format": "functional"}, "[10]": {"experiment": "alpha-synuclein stem-loop translation blockers – luminescence, H4 neuroglioblastoma cells, dose confirmation, confirmation (AID 2454);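 note: potency for inhibition of the luciferase signal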", "format": "functional, cell-based"}, "Jurkat": {"system": "Jurkat", "experiment": "blockers of NF-kB activation in T cells – Jurkat, luciferase reporter, luminescence, B- and T-cell, dose response (AID 489004);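 note: NF-kB luciferase reporter Jurkat cells stimulated with PMA plus ionomycin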", "format": "functional, cell-based", "settings": "Homo sapiens"}, "[11]": {"experiment": "luciferase reporter signal reduction – luminescence, H4-C neuroglioblastoma cells, dose response (AID 2458);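 note: H4 neuroglioblastoma cells stably carrying a luciferase reporter gene fusion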", "format": "functional, cell-based"}, "cells": {"experiment": "cells", "format": "functional, cell-based"}, "[12]": {"molecular_target": "T1, Heat shock factor protein 1 (Mus musculus, UniProt P38532)", "T1 sequence (P38532 whole entry)": "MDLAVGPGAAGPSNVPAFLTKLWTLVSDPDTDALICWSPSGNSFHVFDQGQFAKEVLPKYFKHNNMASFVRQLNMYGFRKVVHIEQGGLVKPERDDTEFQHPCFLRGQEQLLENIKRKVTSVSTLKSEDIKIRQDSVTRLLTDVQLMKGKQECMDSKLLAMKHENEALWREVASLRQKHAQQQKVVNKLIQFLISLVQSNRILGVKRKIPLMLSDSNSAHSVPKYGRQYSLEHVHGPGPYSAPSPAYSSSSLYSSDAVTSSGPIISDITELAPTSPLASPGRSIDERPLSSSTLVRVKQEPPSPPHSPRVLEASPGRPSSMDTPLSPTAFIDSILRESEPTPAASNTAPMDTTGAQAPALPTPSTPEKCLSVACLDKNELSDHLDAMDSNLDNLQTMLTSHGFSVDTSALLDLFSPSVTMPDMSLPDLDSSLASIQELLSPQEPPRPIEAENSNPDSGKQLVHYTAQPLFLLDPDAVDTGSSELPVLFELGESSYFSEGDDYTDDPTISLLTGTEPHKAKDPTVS", "experiment": "decrease of HSF1-responsive luciferase luminescence – cell-based, NIH3T3, dose retest, confirmation (AID 2382);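 note: NIH3T3 fibroblasts with HSF1-driven luciferase reporter stressed by proteasome inhibitor MG132; luminescence from HSF1-driven luciferase expression after 8 hours of MG132 stress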", "format": "functional"}, "[13]": {"experiment": "loss of viability in HepG2 cells – cell-based, CellTiter-Glo, cherry-picked, cytotoxicity control for Shn3 inhibitor project, dose response (AID 624134)", "format": "functional"}, "[14]": {"experiment": "Fluorescence-based cell-based high throughput dose response assay for inhibitors of the interaction of nucleotide-binding oligomerization domain containing 2 (NOD2) and the receptor-interacting serine-threonine kinase 2 (RIPK2).", "format": "functional", "settings": "Homo sapiens"}},
  "note": "Active and inactive are the calls of the source. Cut-off read from the data, not from the text of the source, for most assays here: actives have a measured EC50 and inactives only a lower limit.",
  "data": [
    {"smiles": "COc1ccc(-c2nc(C#N)c(NCc3ccc(F)cc3)o2)cc1OC", "values": [
      {"measurement": "AC50", "setting": "[1]", "result": "59400 nM (active)"}
    ]},
    {"smiles": "Cc1cc(N2CCOCC2)n2cc(-c3ccccc3)nc2n1", "values": [
      {"measurement": "AC50", "setting": "CAAX prenyl protease 1", "result": "38600 nM (active)"}
    ]},
    {"smiles": "COc1ccc(C[C@H]2NC[C@H](O)[C@H]2OC(C)=O)cc1", "note": "[ANISOMYCIN]", "values": [
      {"measurement": "IC50", "setting": "[2]", "result": "> 80000 nM (inactive)"},
      {"measurement": "EC50", "setting": "[3]", "result": "< 100 nM (active)"},
      {"measurement": "EC50", "setting": "BJ", "result": "30.8 nM (active)"},
      {"measurement": "AC50", "setting": "[4]", "result": "3440 nM (active)"},
      {"measurement": "EC50", "setting": "[5]", "result": "< 100 nM (active)"},
      {"measurement": "AC50", "setting": "Paired box protein Pax-8", "result": "< 260 nM (active)"},
      {"measurement": "EC50", "setting": "[6]", "result": "< 120 nM (active)"},
      {"measurement": "AC50", "setting": "[7]", "result": "882 nM (active)"},
      {"measurement": "EC50", "setting": "[8]", "result": "1030 nM (active)"},
      {"measurement": "EC50", "setting": "[9]", "result": "> 120000 nM (not active)"},
      {"measurement": "EC50", "setting": "[10]", "result": "104 nM (active)"},
      {"measurement": "IC50", "setting": "Jurkat", "result": "< 160 nM (active)"},
      {"measurement": "EC50", "setting": "[11]", "result": "91 nM (active)"},
      {"measurement": "EC50", "setting": "cells", "result": "121 nM (active)"},
      {"measurement": "EC50", "setting": "[12]", "result": "243 nM (active)"},
      {"measurement": "AC50", "setting": "[13]", "result": "> 70000 nM (inactive)"},
      {"measurement": "IC50", "setting": "[14]", "result": "49800 nM (inactive)"}
    ]}
  ]
}
